Source: the supplement of paper PMC10331698
± gives the standard deviation of the averaged measurements.

Columns and labels:
Assay in all cases: level (log10 ratio to DMSO vehicle control); higher = higher biomarker level / cell amount than vehicle control
Conditions in all cases: in DMSO
[1] = compound: OCC(F)(F)C(F)(F)C(F)(F)C(F)(F)C(F)(F)C(F)F [1H,1H,7H-Dodecafluoro-1-heptanol]
Procedure: (§1)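 BioMAP Diversity Plus panel of 12 human primary cell co-culture systems (3C, 4H, LPS, SAg, BT, BF4T, BE3C, CASM3C, HDF3CGF, KF3CT, MyoF, Mphg). Compounds were added 1 h before stimulation and left for 24 h (MyoF 48 h; BT 72 h for soluble read-outs or 6 d for IgG). Biomarkers were read by ELISA, cytotoxicity by SRB, PBMC viability and proliferation by Alamar Blue. Each well value was divided by the mean of 8 DMSO control wells on the same plate and log10 transformed; duplicate blinded samples were tested at 4 concentrations.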

[2] = compound: O=C(O)CCC(F)(F)C(F)(F)C(F)(F)C(F)(F)C(F)(F)F [2H,2H,3H,3H-Perfluorooctanoic acid]
Procedure: as §1

1-(Perfluorohexyl)octane = compound: CCCCCCCCC(F)(F)C(F)(F)C(F)(F)C(F)(F)C(F)(F)C(F)(F)F [1-(Perfluorohexyl)octane]
Procedure: as §1

[3] = compound: O=S(=O)(O)C(F)(F)C(F)(F)C(F)(F)C(F)(F)C(F)(F)C(F)(F)C(F)(F)C(F)(F)F [Potassium perfluorooctanesulfonate]
Procedure: as §1

Perfluorohexanoic acid = compound: O=C(O)C(F)(F)C(F)(F)C(F)(F)C(F)(F)C(F)(F)F [Perfluorohexanoic acid]
Procedure: as §1

[4] = compound: O=C(O)C(F)(F)C(F)(F)C(F)(F)C(F)(F)C(F)(F)C(F)(F)C(F)(F)C(F)(F)Cl [9-Chloro-perfluorononanoic acid]
Procedure: as §1

Perfluorooctanamidine = compound: N=C(N)C(F)(F)C(F)(F)C(F)(F)C(F)(F)C(F)(F)C(F)(F)C(F)(F)F [Perfluorooctanamidine]
Procedure: as §1

Test System: HDF3CGF:SRB
- level (log10) ([1]; 6700 nM): -0.0345 ± 0.033
- level (log10) ([1]; 20000 nM): -0.007 ± 0.05
- level (log10) ([1]; 60000 nM): -0.0055 ± 0.057
- level (log10) ([2]; 6700 nM): -0.006 ± 0.034
- level (log10) ([2]; 20000 nM): 0.0185 ± 0.04
- level (log10) ([2]; 60000 nM): 0.077 ± 0.028
- level (log10) (1-(Perfluorohexyl)octane; 6700 nM): 0.0105 ± 0.11
- level (log10) (1-(Perfluorohexyl)octane; 20000 nM): 0.022 ± 0.057
- level (log10) ([3]; 6700 nM): -0.033 ± 0.052
- level (log10) ([3]; 20000 nM): -0.005 ± 0.052
- level (log10) ([3]; 60000 nM): -0.0695 ± 0.053
- level (log10) (Perfluorohexanoic acid; 6700 nM): 0.0135 ± 0.013
- level (log10) (Perfluorohexanoic acid; 20000 nM): 0.0305 ± 0.022
- level (log10) (Perfluorohexanoic acid; 60000 nM): -0.0055 ± 0.0092
- level (log10) ([4]; 6700 nM): 0.081 ± 0.016
- level (log10) ([4]; 20000 nM): 0.065 ± 0.033
- level (log10) (Perfluorooctanamidine; 6700 nM): -0.01 ± 0.017
- level (log10) (Perfluorooctanamidine; 20000 nM): 0.0155 ± 0.0035
- level (log10) (Perfluorooctanamidine; 60000 nM): -0.048

Test System: HDF3CGF:TIMP-1
- level (log10) ([1]; 6700 nM): -0.015 ± 0.027
- level (log10) ([1]; 20000 nM): -0.0055 ± 0.033
- level (log10) ([1]; 60000 nM): 0.011 ± 0.044
- level (log10) ([2]; 6700 nM): -0.019 ± 0.064
- level (log10) ([2]; 20000 nM): -0.01 ± 0.11
- level (log10) ([2]; 60000 nM): -0.047 ± 0.17
- level (log10) (1-(Perfluorohexyl)octane; 6700 nM): 0.0105 ± 0.039
- level (log10) (1-(Perfluorohexyl)octane; 20000 nM): -0.0185 ± 0.03
- level (log10) ([3]; 6700 nM): 0.001 ± 0.024
- level (log10) ([3]; 20000 nM): -0.001 ± 0.016
- level (log10) ([3]; 60000 nM): 0.097 ± 0.061
- level (log10) (Perfluorohexanoic acid; 6700 nM): -0.0005 ± 0.0078
- level (log10) (Perfluorohexanoic acid; 20000 nM): -0.002 ± 0.016
- level (log10) (Perfluorohexanoic acid; 60000 nM): 0.0025 ± 0.015
- level (log10) ([4]; 6700 nM): -0.028 ± 0.027
- level (log10) ([4]; 20000 nM): -0.0105 ± 0.056
- level (log10) (Perfluorooctanamidine; 6700 nM): 0.013 ± 0.042
- level (log10) (Perfluorooctanamidine; 20000 nM): 0.018 ± 0.05
- level (log10) (Perfluorooctanamidine; 60000 nM): 0.092

Test System: HDF3CGF:TIMP-2
- level (log10) ([1]; 6700 nM): -0.0025 ± 0.0092
- level (log10) ([1]; 20000 nM): -0.0035 ± 0.0021
- level (log10) ([1]; 60000 nM): 0.0025 ± 0.022
- level (log10) ([2]; 6700 nM): -0.0325 ± 0.021
- level (log10) ([2]; 20000 nM): -0.04 ± 0.023
- level (log10) ([2]; 60000 nM): 0.005 ± 0.047
- level (log10) (1-(Perfluorohexyl)octane; 6700 nM): -0.005 ± 0.067
- level (log10) (1-(Perfluorohexyl)octane; 20000 nM): -0.0035 ± 0.052
- level (log10) ([3]; 6700 nM): -0.055 ± 0.03
- level (log10) ([3]; 20000 nM): -0.108 ± 0.019
- level (log10) ([3]; 60000 nM): -0.137 ± 0.038
- level (log10) (Perfluorohexanoic acid; 6700 nM): 0.033 ± 0.0014
- level (log10) (Perfluorohexanoic acid; 20000 nM): 0.021 ± 0.017
- level (log10) (Perfluorohexanoic acid; 60000 nM): 0.025 ± 0.037
- level (log10) ([4]; 6700 nM): -0.0645 ± 0.04
- level (log10) ([4]; 20000 nM): -0.146 ± 0.029
- level (log10) (Perfluorooctanamidine; 6700 nM): -0.008 ± 0.027
- level (log10) (Perfluorooctanamidine; 20000 nM): -0.012 ± 0.031
- level (log10) (Perfluorooctanamidine; 60000 nM): -0.018

Test System: KF3CT:CCL2/MCP-1
- level (log10) ([1]; 6700 nM): -0.0055 ± 0.021
- level (log10) ([1]; 20000 nM): -0.0155 ± 0.015
- level (log10) ([1]; 60000 nM): 0.004 ± 0.028
- level (log10) ([2]; 6700 nM): -0.026
- level (log10) ([2]; 20000 nM): 0.0135 ± 0.016
- level (log10) ([2]; 60000 nM): -0.0235 ± 0.069
- level (log10) (1-(Perfluorohexyl)octane; 6700 nM): 0.0005 ± 0.023
- level (log10) (1-(Perfluorohexyl)octane; 20000 nM): 0.036 ± 0.033
- level (log10) ([3]; 6700 nM): -0.009 ± 0.011
- level (log10) ([3]; 20000 nM): -0.012 ± 0.0014
- level (log10) ([3]; 60000 nM): 0.001 ± 0.05
- level (log10) (Perfluorohexanoic acid; 6700 nM): -0.0155 ± 0.019
- level (log10) (Perfluorohexanoic acid; 20000 nM): -0.0385 ± 0.018
- level (log10) (Perfluorohexanoic acid; 60000 nM): 0.001 ± 0.052
- level (log10) ([4]; 6700 nM): 0.004 ± 0.023
- level (log10) ([4]; 20000 nM): 0.036 ± 0.035
- level (log10) (Perfluorooctanamidine; 6700 nM): -0.0075 ± 0.0064
- level (log10) (Perfluorooctanamidine; 20000 nM): 0.029 ± 0.0099
- level (log10) (Perfluorooctanamidine; 60000 nM): 0.092

Test System: KF3CT:CD54/ICAM-1
- level (log10) ([1]; 6700 nM): -0.002 ± 0.016
- level (log10) ([1]; 20000 nM): -0.0115 ± 0.0064
- level (log10) ([1]; 60000 nM): 0.003 ± 0.017
- level (log10) ([2]; 6700 nM): -0.016 ± 0.0085
- level (log10) ([2]; 20000 nM): -0.0205 ± 0.018
- level (log10) ([2]; 60000 nM): -0.0285 ± 0.023
- level (log10) (1-(Perfluorohexyl)octane; 6700 nM): 0.0045 ± 0.033
- level (log10) (1-(Perfluorohexyl)octane; 20000 nM): -0.0065 ± 0.0035
- level (log10) ([3]; 6700 nM): -0.0165 ± 0.021
- level (log10) ([3]; 20000 nM): 0.0075 ± 0.011
- level (log10) ([3]; 60000 nM): 0.002 ± 0.027
- level (log10) (Perfluorohexanoic acid; 6700 nM): 0.0055 ± 0.0064
- level (log10) (Perfluorohexanoic acid; 20000 nM): -0.002 ± 0.013
- level (log10) (Perfluorohexanoic acid; 60000 nM): -0.007 ± 0.011
- level (log10) ([4]; 6700 nM): -0.0175 ± 0.00071
- level (log10) ([4]; 20000 nM): -0.039 ± 0.0014
- level (log10) (Perfluorooctanamidine; 6700 nM): 0.0055 ± 0.033
- level (log10) (Perfluorooctanamidine; 20000 nM): 0.0175 ± 0.022
- level (log10) (Perfluorooctanamidine; 60000 nM): 0.064

Test System: KF3CT:CXCL8/IL-8
- level (log10) ([1]; 6700 nM): 0.017 ± 0.0028
- level (log10) ([1]; 20000 nM): 0.01 ± 0.025
- level (log10) ([1]; 60000 nM): 0.0165 ± 0.016
- level (log10) ([2]; 6700 nM): -0.017 ± 0.042
- level (log10) ([2]; 20000 nM): -0.009 ± 0.028
- level (log10) ([2]; 60000 nM): -0.0295 ± 0.0021
- level (log10) (1-(Perfluorohexyl)octane; 6700 nM): 0.009 ± 0.0085
- level (log10) (1-(Perfluorohexyl)octane; 20000 nM): 0.021 ± 0.0057
- level (log10) ([3]; 6700 nM): -0.006 ± 0.017
- level (log10) ([3]; 20000 nM): -0.0045 ± 0.0092
- level (log10) ([3]; 60000 nM): -0.0185 ± 0.015
- level (log10) (Perfluorohexanoic acid; 6700 nM): -0.005 ± 0.014
- level (log10) (Perfluorohexanoic acid; 20000 nM): 0.009 ± 0.04
- level (log10) (Perfluorohexanoic acid; 60000 nM): 0.031 ± 0.013
- level (log10) ([4]; 6700 nM): 0.0015 ± 0.021
- level (log10) ([4]; 20000 nM): -0.0025 ± 0.0035
- level (log10) (Perfluorooctanamidine; 6700 nM): 0.0135 ± 0.021
- level (log10) (Perfluorooctanamidine; 20000 nM): 0.0305 ± 0.018
- level (log10) (Perfluorooctanamidine; 60000 nM): 0.043

Test System: KF3CT:CXCL9/MIG
- level (log10) ([1]; 6700 nM): 0.0135 ± 0.012
- level (log10) ([1]; 20000 nM): 0.0065 ± 0.0035
- level (log10) ([1]; 60000 nM): 0.0015 ± 0.018
- level (log10) ([2]; 6700 nM): -0.004 ± 0.011
- level (log10) ([2]; 20000 nM): 0.0025 ± 0.0092
- level (log10) ([2]; 60000 nM): 0.0075 ± 0.00071
- level (log10) (1-(Perfluorohexyl)octane; 6700 nM): 0.0085 ± 0.013
- level (log10) (1-(Perfluorohexyl)octane; 20000 nM): 0.001 ± 0.0057
- level (log10) ([3]; 6700 nM): -0.0065 ± 0.0035
- level (log10) ([3]; 20000 nM): 0.003 ± 0.0042
- level (log10) ([3]; 60000 nM): 0.008 ± 0.027
- level (log10) (Perfluorohexanoic acid; 6700 nM): 0.0075 ± 0.0064
- level (log10) (Perfluorohexanoic acid; 20000 nM): 0.0035 ± 0.012
- level (log10) (Perfluorohexanoic acid; 60000 nM): 0.0095 ± 0.012
- level (log10) ([4]; 6700 nM): 0.0025 ± 0.0092
- level (log10) ([4]; 20000 nM): -0.0015 ± 0.0021
- level (log10) (Perfluorooctanamidine; 6700 nM): -0.0015 ± 0.011
- level (log10) (Perfluorooctanamidine; 20000 nM): -0.0005 ± 0.0092
- level (log10) (Perfluorooctanamidine; 60000 nM): 0.015
